Reference: patent US20100029710A1, “COMPOUNDS HAVING BOTH ANGIOTENSIN II RECEPTOR ANTAGONISM AND PPARy ACTIVATING ACTIVITIES” (Pfizer Products Inc., priority 2006, published 2010)

Experiments:
[1] = target: T1, human PPARγ LBD bound to Gal4 DBD (Homo sapiens, UniProt P37231); assay: PPARγ transfection luciferase reporter assay in HepG2 cells; type: cell-based; conditions: for Emax: HepG2, 24 h, compared to full agonist response (standard TZD full agonist), read-out: PPARγ % activation; for EC50: HepG2, 24 hours exposure
T1 construct: expressed in transfected cells; host or cells: HepG2
T1 sequence (P37231 238-503 limits assumed): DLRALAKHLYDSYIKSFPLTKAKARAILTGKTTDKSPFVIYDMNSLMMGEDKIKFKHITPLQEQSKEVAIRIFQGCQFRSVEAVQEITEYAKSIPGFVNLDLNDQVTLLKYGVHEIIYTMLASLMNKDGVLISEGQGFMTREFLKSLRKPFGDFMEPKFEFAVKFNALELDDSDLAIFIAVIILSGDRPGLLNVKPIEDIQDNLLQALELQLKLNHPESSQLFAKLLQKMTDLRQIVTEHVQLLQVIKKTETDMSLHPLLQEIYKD
Protocol: PPARγ agonist activity may be determined by a cell line transiently transfected with PPARγ bound to a DNA binding domain that controls luciferase expression. The degree of receptor agonism is measured by the amount of luciferase activity after compound treatment. The ratio of treated cells over vehicle control cells provides a measure of fold activation and allows an EC50 (shown in tables I and II as […] EC50) and % activation to be calculated
A human hepatocellular carcinoma cell line (HepG2) was subcultured into dishes and transiently transfected with DNA to allow expression of human PPARγ LBD bound to Gal4 DBD. Luciferase reporter gene and β-galactosidase control genes were co-transfected to enable activity to be measured. After 24 hours, cells were exposed to compounds in the concentration range of 0.1 nM-100 μM and left for a further 24 hours. Luciferase activity is determined by luminometry and PPARγ activation is expressed as a ratio of luciferase activity to β-galactosidase activity to account for transfection efficiency. Potency is described by an EC50 defined as the concentration of compound producing receptor activation equivalent to 50% of the maximum for that compound (shown in Table I as transfection EC50). The maximum fold activation is a measure of efficacy and is expressed as a percentage of a reference full agonist run in the same assay. Efficacy is described by % activation of receptor relative to a standard thiazolidinedione (TZD) full agonist.

[2] = target: T2, Human recombinant AT1 receptor (Homo sapiens, UniProt P30556); assay: AT1 receptor radioligand binding (flashplate); conditions: 125I Sar1,Ile8-Angiotensin II radioligand
T2 construct: purchased
T2 sequence (P30556 1-359): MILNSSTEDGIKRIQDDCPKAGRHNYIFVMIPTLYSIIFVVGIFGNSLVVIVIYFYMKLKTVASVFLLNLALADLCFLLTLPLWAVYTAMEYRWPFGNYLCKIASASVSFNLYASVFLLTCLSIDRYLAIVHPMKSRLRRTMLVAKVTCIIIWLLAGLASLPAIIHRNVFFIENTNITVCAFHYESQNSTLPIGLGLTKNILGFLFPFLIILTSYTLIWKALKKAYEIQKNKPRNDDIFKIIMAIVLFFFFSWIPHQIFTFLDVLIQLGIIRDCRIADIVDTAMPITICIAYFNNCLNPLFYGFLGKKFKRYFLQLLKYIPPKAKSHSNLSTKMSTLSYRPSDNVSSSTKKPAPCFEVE
Protocol: Angiotensin II receptor antagonist activity may be determined using commercially available flashplates coated with the AT1 or AT2 receptor which provide a rapid and high throughput means to evaluate compounds compared to traditional filtration based assays (Regina M. Van Der Hee et al., Journal of Biomolecular Screening 10(2); 2005; 118-126).
AT1 receptor affinity was determined in a radioligand binding format using commercially available flashplate technology. Human recombinant AT1 receptor were coated on the wells of a 96 well flashplate and test compounds were diluted and added to wells at a final concentration range of 50 μM to 1 μM. Total binding was determined in the absence of compound and non-specific binding in the presence of 10 μM cold Angiotensin II. ^125I labeled Sar^1, Ile^8-Angiotensin II was added to all wells at Kd concentration and left for 2 hours at room temperature to equilibrate. Plates were read on a TopCount (Perkin Elmer) and concentration-response curves constructed using commercial curve fitting software. The Ki was determined via interpolation and the use of the Cheng-Prussof equation.

| Emax [1] | EC50 [1] | IC50 [2] | SMILES |
| --- | --- | --- | --- |
| 26% | 380 nM | 10 nM | CCc1nc2c(C)cc(CCc3ccccc3F)nc2n1[C@H]1CCc2cc(-c3ccccc3-c3nnn[nH]3)ccc21 [Example 26, 3-((1S)-5-(2-(1H-tetrazol-5-yl)phenyl)-2,3-dihydro-1H-inden-1-yl)-5-(2-fluorophenethyl)-2-ethyl-7-methyl-3H-imidazo[4,5-b]pyridine] |
| 23% | 390 nM | 0.5 nM | CCCc1nc2c(C)cc(CCC(C)(C)O)nc2n1[C@H]1CCc2cc(-c3ccccc3-c3nnn[nH]3)ccc21 [Example 35, 4-(3-((1S)-5-(2-(1H-tetrazol-5-yl)phenyl)-2,3-dihydro-1H-inden-1-yl)-7-methyl-2-propyl-3H-imidazo[4,5-b]pyridin-5-yl)-2-methylbutan-2-ol] |
| 31% | 200 nM | 3.8 nM | CCc1nc2c(C)cc(CCC3CCCCC3)nc2n1[C@H]1CCc2cc(-c3ccccc3-c3nnn[nH]3)ccc21 [Example 58, 3-((1S)-5-(2-(1H-tetrazol-5-yl)phenyl)-2,3-dihydro-1H-inden-1-yl)-5-(2-cyclohexylethyl)-2-ethyl-7-methyl-3H-imidazo[4,5-b]pyridine] |
| 50% | 70 nM | 1.4 nM | CCc1nnc(Cc2cc(C)c3nc(CC)n([C@H]4CCc5cc(-c6ccccc6-c6nnn[nH]6)ccc54)c3n2)o1 [Example 62, 3-((1S)-5-(2-(1H-tetrazol-5-yl)phenyl)-2,3-dihydro-1H-inden-1-yl)-2-ethyl-5-((5-ethyl-1,3,4-oxadiazol-2-yl)methyl)-7-methyl-3H-imidazo[4,5-b]pyridine] |
| 29% | 85 nM | 5.4 nM | CCc1nc2c(C)cc(CC(O)CC(C)C)nc2n1[C@H]1CCc2cc(-c3ccccc3-c3nnn[nH]3)ccc21 (stereo partly drawn) [Example 18, 1-(3-((1S)-5-(2-(1H-tetrazol-5-yl)phenyl)-2,3-dihydro-1H-inden-1-yl)-2-ethyl-7-methyl-3H-imidazo[4,5-b]pyridin-5-yl)-4-methylpentan-2-ol] |
| 21% | 525 nM | 22 nM | CCc1nc2c(C)cc(C(=O)CC(C)C)nc2n1[C@H]1CCc2cc(-c3ccccc3-c3nnn[nH]3)ccc21 [Example 60, 1-(3-((1S)-5-(2-(1H-tetrazol-5-yl)phenyl)-2,3-dihydro-1H-inden-1-yl)-2-ethyl-7-methyl-3H-imidazo[4,5-b]pyridin-5-yl)-3-methylbutan-1-one] |
| 29% | 155 nM | 1.1 nM | CCc1nc2c(C)cc(CCC3(O)CCCC3)nc2n1[C@H]1CCc2cc(-c3ccccc3-c3nnn[nH]3)ccc21 [Example 42, 1-(2-(3-((1S)-5-(2-(1H-tetrazol-5-yl)phenyl)-2,3-dihydro-1H-inden-1-yl)-2-ethyl-7-methyl-3H-imidazo[4,5-b]pyridin-5-yl)ethyl)cyclopentanol] |
| 31% | 195 nM | 2.9 nM | CCc1nc2c(C)cc(CCc3cccc(OC)c3)nc2n1[C@H]1CCc2cc(-c3ccccc3-c3nnn[nH]3)ccc21 [Example 29, 3-((1S)-5-(2-(1H-tetrazol-5-yl)phenyl)-2,3-dihydro-1H-inden-1-yl)-5-(3-methoxyphenethyl)-2-ethyl-7-methyl-3H-imidazo[4,5-b]pyridine] |
| 27% | 90 nM | 4.5 nM | CCc1nc2c(C)cc(Cc3ccccc3)nc2n1[C@H]1CCc2cc(-c3ccccc3-c3nnn[nH]3)ccc21 [Example 1, 3-((1S)-5-(2-(1H-tetrazol-5-yl)phenyl)-2,3-dihydro-1H-inden-1-yl)-5-benzyl-2-ethyl-7-methyl-3H-imidazo[4,5-b]pyridine] |
| 26% | 220 nM | 4.8 nM | CCc1nc2c(C)cc(/C=C/COC)nc2n1[C@H]1CCc2cc(-c3ccccc3-c3nnn[nH]3)ccc21 [Example 23, 3-((1S)-5-(2-(1H-tetrazol-5-yl)phenyl)-2,3-dihydro-1H-inden-1-yl)-2-ethyl-5-((E)-3-methoxyprop-1-enyl)-7-methyl-3H-imidazo[4,5-b]pyridine] |
| 32% | 665 nM | 1.6 nM | CCc1nc2c(C)cc(COC)nc2n1[C@H]1CCc2cc(-c3ccccc3-c3nnn[nH]3)ccc21 [Example 3, 3-((1S)-5-(2-(1H-tetrazol-5-yl)phenyl)-2,3-dihydro-1H-inden-1-yl)-2-ethyl-5-(methoxymethyl)-7-methyl-3H-imidazo[4,5-b]pyridine] |
| 16% | 60 nM | 1.3 nM | CCc1nc2c(C)cc([C@@H](O)c3ccccc3)nc2n1[C@H]1CCc2cc(-c3ccccc3-c3nnn[nH]3)ccc21 (single isomer, unassigned) [Example 8a] |
| 21% | 410 nM | 5 nM | CCc1nc2c(C)cc(C(C)(O)C(C)C)nc2n1[C@H]1CCc2cc(-c3ccccc3-c3nnn[nH]3)ccc21 (stereo partly drawn) [Example 61, 2-(3-((1S)-5-(2-(1H-tetrazol-5-yl)phenyl)-2,3-dihydro-1H-inden-1-yl)-2-ethyl-7-methyl-3H-imidazo[4,5-b]pyridin-5-yl)-3-methylbutan-2-ol] |
| 32% | 140 nM | 1.1 nM | CCc1nc2c(C)cc(CC[C@H](O)CC)nc2n1[C@H]1CCc2cc(-c3ccccc3-c3nnn[nH]3)ccc21 [Example 45, (R)-1-(3-((1S)-5-(2-(1H-tetrazol-5-yl)phenyl)-2,3-dihydro-1H-inden-1-yl)-2-ethyl-7-methyl-3H-imidazo[4,5-b]pyridin-5-yl)pentan-3-ol] |
| 24% | 135 nM | 1.1 nM | CCc1nc2c(C)cc(CC[C@@H](C)OC)nc2n1[C@H]1CCc2cc(-c3ccccc3-c3nnn[nH]3)ccc21 [Example 39, 3-((1S)-5-(2-(1H-tetrazol-5-yl)phenyl)-2,3-dihydro-1H-inden-1-yl)-2-ethyl-5-((R)-3-methoxybutyl)-7-methyl-3H-imidazo[4,5-b]pyridine] |
| 36% | 30 nM | 4 nM | CCc1nc2c(C)cc(CCC(C)(O)CC(C)C)nc2n1[C@H]1CCc2cc(-c3ccccc3-c3nnn[nH]3)ccc21 (stereo partly drawn) [Example 69, 1-(3-((1S)-5-(2-(1H-tetrazol-5-yl)phenyl)-2,3-dihydro-1H-inden-1-yl)-2-ethyl-7-methyl-3H-imidazo[4,5-b]pyridin-5-yl)-3,5-dimethylhexan-3-ol] |
| 39% | 440 nM | 16 nM | CCc1nc2c(C)cc([C@H](O)C(C)C)nc2n1[C@H]1CCc2cc(-c3ccccc3-c3nnn[nH]3)ccc21 [Example 11, (R)-1-(3-((1S)-5-(2-(1H-tetrazol-5-yl)phenyl)-2,3-dihydro-1H-inden-1-yl)-2-ethyl-7-methyl-3H-imidazo[4,5-b]pyridin-5-yl)-2-methylpropan-1-ol] |
| 28% | 460 nM | 2.2 nM | CCc1nc2c(C)cc(C3OC3(C)C)nc2n1[C@H]1CCc2cc(-c3ccccc3-c3nnn[nH]3)ccc21 (stereo partly drawn) [Example 22, 3-((1S)-5-(2-(1H-tetrazol-5-yl)phenyl)-2,3-dihydro-1H-inden-1-yl)-5-(3,3-dimethyloxiran-2-yl)-2-ethyl-7-methyl-3H-imidazo[4,5-b]pyridine] |
